Test results as given in patent publication US6174907A, “Benzimidazole compounds containing 1,2,4-triazole ring, and compositions and methods of use containing the same” (Fuji Photo Film Co., Ltd., priority 1995, dated 2001).
Where two headings read alike, the source gives them in different places.

Tests used:
[1] = test system: mouse peritoneal macrophages; experiment: Cytotoxicity examined microscopically (morphological alteration of cells); assay type: cell-based, mouse (female ICR); details: 5 μM, observed microscopically
Protocol: (§1) Activity of the compounds of the present invention for suppressing the foaming of macrophages, which triggers arterial sclerosis, was examined by an in vitro experiment using mouse peritoneal macrophages. 15-Week old female ICR mice (Nippon SLC) were subjected to bleeding by cutting off their cervicalis, and Hanks buffer (Nippon Seiyaku) was injected into their peritoneal cavities. After abdominal regions of the mice were massaged, the buffer was recovered immediately, and then the resulting buffer was centrifuged at 1,000 r.p.m. for five minutes to collect peritoneal macrophages. Then, the collected macrophages were suspended in GTI medium (Wako Pure Chemical Industries), and inoculated onto a 24-well microtiter plate. After the macrophages were cultivated at 37° C. under 5% CO2 for two hours, the culture medium was changed with Dulbecco Modified Eagle Medium (MEM, Nippon Seiyaku). The macrophages were further cultivated at 37° C. under 5% CO2 for 16 hours, and then a test compound and liposomes were added to the culture.
(§2) After cultivation was further continued at 37° C. under 5% CO2 for 16 hours, lipid fraction was extracted with chloroform and methanol. The extracted lipid fraction was dissolved in isopropyl alcohol, and the produced cholesterol ester (CE) was quantified by an enzymatic luminescence method. Yield of the cholesterol ester was calculated as a relative ratio based on yield of the control as 100% where no test compound was added. Cytotoxicity was examined microscopically by observing morphological alteration of cells. In the tables, compound numbers correspond to those of the compounds of present invention described in the examples.

[2] = test system: rabbits fed with high cholesterol food; experiment: Suppression of formation of arterial sclerosis lesions (cholesterol deposited on inner vascular walls of aortas); assay type: in vivo, NZW rabbits (male); details: 100 mg/kg/day/rabbit in feed; aortas removed seven weeks after the administration
Source text: Activity of the compounds of the present invention for suppressing the formation of arterial sclerosis lesions (in vivo experiment)
(§3) By using rabbits fed with high cholesterol food, effect on lipid in blood and activity of the compounds of the present invention for suppressing formation of arterial sclerosis lesions were examined. Hypercholesterolemia condition was created by feeding NZW rabbits (male) weighing about 2 kg with high cholesterol feed (100 g/day/rabbit of OCR-4 [Oriental Yeast]+0.5% cholesterol+0.5% olive oil) for seven days. A group consisting of three rabbits was continuously administered with a compound of the present invention (Compound B16 or Compound B49) for seven days by mixing the compound with the above feed at an amount of 100 mg/kg/day/rabbit. Another group consisting of three rabbits was fed solely with the high cholesterol feed and used as a control group.
Aortas were removed seven weeks after the administration, and cholesterol deposited on inner vascular walls was quantified. In the groups administered with Compound B16 or Compound B49, the amount of deposited cholesterol was reduced by 40% and 45% compared with control, respectively.

[3] = test system: mouse peritoneal macrophages; experiment: Suppression of foaming of macrophages (cholesterol ester synthesis) in vitro; assay type: cell-based, mouse (female ICR); details: 5 μM, 16 hours, relative to control as 100%, smaller value = more potent suppression; for activity at 5 µM: Mus musculus, Peritoneal macrophage, read-out: Rate of CE synthesis (%)
Protocol: Activity of the compounds of the present invention for suppressing the foaming of macrophages
as §1
1) Test compound: dissolved in DMSO (Wako Pure Chemical Industries),
PC: Phosphatidylcholine (Funakoshi);
PS: Phosphatidylserine (Funakoshi);
DCP: Dicetylphosphate (Funakoshi);
CHOL: Cholesterol (Sigma)
as §2

[4] = test system: rabbits fed with high cholesterol food; experiment: Effect on lipid in blood, GOT and GPT in rabbits fed with high cholesterol food; assay type: in vivo, NZW rabbits (male); details: 100 mg/kg/day/rabbit in feed; for Difference in total cholesterol compared with the control group / Increase of HDL cholesterol / Reduction of LDL cholesterol compared with the control group: seven days, high cholesterol feed; for GOT / GPT: during the experiment
Source text: as §3, with “Activity of the compounds of the present invention for suppressing the formation of arterial sclerosis lesions (in vivo experiment) By” for “By”, “group. Blood was collected from parotid veins with one week interval, and total cholesterol, LDL cholesterol, HDL cholesterol, GOT, and GPT were measured.” for “group.”

| Compound | Cytotoxicity ([1]; Table 4) | activity at 5 µM ([3]; Table 4) | also measured |
| --- | --- | --- | --- |
| c1cnc(SCCCCCSc2nc3ccccc3[nH]2)nc1 [Compound B49] | Not observed | 11% | Reduction of the amount of deposited cholesterol on inner vascular walls of aortas compared with control [2]: 45%; Difference in total cholesterol compared with the control group [4]: no difference in total cholesterol was observed; Increase of HDL cholesterol [4]: 30%; Reduction of LDL cholesterol compared with the control group [4]: 30%; GOT [4]: No abnormal value was observed; GPT [4]: No abnormal value was observed |
| Cc1nnc(SCCCCCSc2nc3ccccc3[nH]2)s1 [Compound B16] | Not observed | 9.3% | Reduction of the amount of deposited cholesterol on inner vascular walls of aortas compared with control [2]: 40%; Difference in total cholesterol compared with the control group [4]: no difference in total cholesterol was observed; Increase of HDL cholesterol [4]: 30%; Reduction of LDL cholesterol compared with the control group [4]: 35%; GOT [4]: No abnormal value was observed; GPT [4]: No abnormal value was observed |
| CCCCCCCCn1nnnc1SCCCCCSc1nc2ccccc2[nH]1 [Compound B11] | Not observed | 18% |  |
| c1ccc(-c2noc(SCCCCCSc3nc4ccccc4[nH]3)n2)cc1 [Compound B27] | Not observed | 15% |  |
| c1ccc(CCCCCSc2nc3ccccc3[nH]2)nc1 [Compound B43, 1-(2'-benzimidazolylthio)-5-(2"-pyridyl)pentane] | Not observed |  | Rate of CE synthesis (%) ([3]; Table 4): 12% |
| Cn1c(SCCCCCSc2ccccn2)nc2ccccc21 [Compound B64, 5-(2'-(1'-methylbenzimidazolyl)thio)-1-(2"-pyridylthio)pentane] | Not observed | 24% |  |
| CSc1nc(C)cc(SCCCCCSc2nc3ccccc3[nH]2)n1 [Compound B56] | Not observed | 18% |  |
| Clc1cc2nc(SCCCCCCSc3nc4ccccc4[nH]3)[nH]c2cc1Cl [Compound A12, 1-(2'-(5',6'-dichlorobenzimidazolyl)thio)-6-(2"-benzimidazolylthio)hexane] |  |  | Cytotoxicity ([1]; Table 3): Not observed; activity at 5 µM ([3]; Table 3): 42% |
| N#Cc1ccc2[nH]c(SCCCCCSc3nc4ccccc4[nH]3)nc2c1 [Compound A17, 1-(2'-(5'-cyanobenzimidazolyl)thio)-5-(2"-benzimidazolylthio)pentane] |  |  | Cytotoxicity ([1]; Table 3): Not observed; activity at 5 µM ([3]; Table 3): 24% |
| Cc1cc2nc(SCCCCCSc3nc4cc(Cl)c(Cl)cc4[nH]3)[nH]c2cc1C [Compound A15, 1-(2'-(5',6'-dichlorobenzimidazolyl)thio)-5-(2"-(5",6"-dimethylbenzimidazolyl)thio)pentane] |  |  | Cytotoxicity ([1]; Table 3): Not observed; activity at 5 µM ([3]; Table 3): 36% |
| Clc1cc2nc(CCCCCSc3ccccn3)[nH]c2cc1Cl [Compound B44] | Not observed | 51% |  |
| O=[N+]([O-])c1ccc2[nH]c(CCCCCSc3ccccn3)nc2c1 [Compound B46] | Not observed | 36% |  |
| CCC(=O)n1c(SCCCCCSc2ccccn2)nc2ccccc21 [Compound B65, 5-(2'-(1'-propionylbenzimidazolyl)thio)-1-(2"-pyridylthio)pentane] | Not observed | 22% |  |
